Source: patent US20260297060A1, “COMPOUNDS FOR THE DEGRADATION OF MUTANT BRAF” (C4 THERAPEUTICS, INC., priority 2023, published 2026)
Where two headings read alike, the source gives them in different places.

Assay: Pharmacokinetics in female BALB/c nude mice bearing A375 xenografts, 1 day dosing (PK and PD study): plasma, tumor and brain concentrations, AUC
Format: in vivo
Details: mouse, po
Description: The concentrations of Dabrafenib, Compound 26 and Compound 141 in the treatment of female BALB/c nude mice bearing A375 xenografts are shown in Table 62-Table 72 and FIG. 52-FIG. 73.

[1] = plasma, 3 mg/kg, 3 mg/kg p.o. BID × 1 day, post 1st dose, read-out: Mean Concentration in Plasma ± SEM
[2] = plasma, 3 mg/kg, 3 mg/kg p.o. BID × 1 day, post 2nd dose, read-out: Mean Concentration in Plasma ± SEM
[3] = plasma, 6 mg/kg, 6 mg/kg p.o. QD × 1 day, read-out: Mean Concentration in Plasma ± SEM
[4] = plasma, 10 mg/kg, 10 mg/kg p.o. BID × 1 day, post 1st dose, read-out: Mean Concentration in Plasma ± SEM
[5] = plasma, 10 mg/kg, 10 mg/kg p.o. BID × 1 day, post 2nd dose, read-out: Mean Concentration in Plasma ± SEM
[6] = tumor, 1.5 mg/kg, 1.5 mg/kg p.o. BID × 1 day, post 2nd dose, read-out: Mean Concentration in Tumor ± SEM
[7] = tumor, 2 mg/kg, 2 mg/kg p.o. TID × 1 day, post 3rd dose, read-out: Mean Concentration in Tumor ± SEM
[8] = tumor, 3 mg/kg, 3 mg/kg p.o. BID × 1 day, post 2nd dose, read-out: Mean Concentration in Tumor ± SEM
[9] = tumor, 6 mg/kg, 6 mg/kg p.o. QD × 1 day, read-out: Mean Concentration in Tumor ± SEM
[10] = tumor, 10 mg/kg, 10 mg/kg p.o. BID × 1 day, post 2nd dose, read-out: Mean Concentration in Tumor ± SEM

With CCN(C)S(=O)(=O)Nc1ccc(F)c(Oc2ccc3ncn([C@H]4COC5(CCN(C6CC7(C6)CN(c6cc8c(cc6F)c(N6CCC(=O)NC6=O)nn8C)C7)CC5)C4)c(=O)c3c2)c1C#N [Compound 26, (3R)-3-[6-[2-cyano-3-[[ethyl(methyl)sulfamoyl]amino]-6-fluoro-phenoxy]-4-oxo-quinazolin-3-yl]-8-[2-[3-(2,4-dioxohexahydropyrimidin-1-yl)-5-fluoro-1-methyl-indazol-6-yl]-2-azaspiro[3.3]heptan-6-yl]-1-oxa-8-azaspiro[4.5]decane] the concentration at 4 h [1] was 3060 ± 172 ng/mL, the concentration at 8 h [1] was 645 ± 24.7 ng/mL and the concentration at 12 h [1] was 527 ± 130 ng/mL. The concentration at 0.25 h [2] was 1380 ± 113 ng/mL, the concentration at 0.5 h [2] was 2880 ± 325 ng/mL and the concentration at 1 h [2] was 4920 ± 1060 ng/mL. It also gave a concentration at 2 h [2] of 5290 ± 1110 ng/mL, a concentration at 4 h [2] of 2590 ± 422 ng/mL and a concentration at 10 h [2] of 1500 ± 194 ng/mL. For the same compound, the concentration at 24 h [2] was 20.5 ± 4.61 ng/mL, the concentration at 36 h [2] was 1.58 ng/mL and the concentration at 48 h [2] was 0.968 ± 0.0751 ng/mL. It also gave a concentration at 0.25 h [3] of 3250 ± 159 ng/mL, a concentration at 0.5 h [3] of 7680 ± 353 ng/mL and a concentration at 1 h [3] of 15200 ± 186 ng/mL. The concentration at 2 h [3] was 11600 ± 1450 ng/mL, the concentration at 4 h [3] was 6670 ± 1110 ng/mL and the concentration at 8 h [3] was 5720 ± 1940 ng/mL. The concentration at 10 h [3] was 3110 ± 682 ng/mL, the concentration at 24 h [3] was 185 ± 109 ng/mL and the concentration at 36 h [3] was 3.87 ± 0.735 ng/mL. It also gave a concentration at 48 h [3] of 1.07 ng/mL, a concentration at 0.25 h [4] of 7140 ± 1960 ng/mL and a concentration at 0.5 h [4] of 17400 ± 1470 ng/mL. For the same compound, the concentration at 1 h [4] was 25400 ± 10500 ng/mL, the concentration at 2 h [4] was 18800 ± 3020 ng/mL and the concentration at 4 h [4] was 7890 ± 2010 ng/mL. The concentration at 8 h [4] was 2920 ± 468 ng/mL, the concentration at 12 h [4] was 964 ± 248 ng/mL and the concentration at 0.25 h [5] was 6220 ± 623 ng/mL. The concentration at 0.5 h [5] was 12800 ± 1590 ng/mL, the concentration at 1 h [5] was 27000 ± 3530 ng/mL and the concentration at 2 h [5] was 20200 ± 1540 ng/mL. For the same compound, the concentration at 4 h [5] was 17100 ± 3470 ng/mL, the concentration at 10 h [5] was 4640 ± 318 ng/mL and the concentration at 24 h [5] was 143 ± 29.1 ng/mL. For the same compound, the concentration at 36 h [5] was 10.7 ± 2.46 ng/mL, the concentration at 48 h [5] was 10.6 ± 9.23 ng/mL and the AUC at 24 h (plasma, 1.5 mg/kg p.o. BID × 1 day, read-out: Plasma AUC at 24 hours, Average) was 27600 ng·h/mL. It also gave an AUC at 24 h (plasma, 2 mg/kg p.o. TID × 1 day, read-out: Plasma AUC at 24 hours, Average) of 41800 ng·h/mL, an AUC at 24 h (plasma, 3 mg/kg p.o. BID × 1 day, read-out: Plasma AUC at 24 hours, Average) of 60200 ng·h/mL and an AUC at 24 h (plasma, 6 mg/kg p.o. QD × 1 day, read-out: Plasma AUC at 24 hours, Average) of 85100 ng·h/mL. For the same compound, the AUC at 24 h (plasma, 10 mg/kg p.o. BID × 1 day, read-out: Plasma AUC at 24 hours, Average) was 224000 ng·h/mL, the concentration at 1 h [6] was 164 ± 31.1 ng/g and the concentration at 4 h [6] was 552 ± 24.7 ng/g. The concentration at 10 h [6] was 246 ± 46.4 ng/g, the concentration at 24 h [6] was 28.3 ± 21.8 ng/g and the concentration at 48 h [6] was 5.63 ng/g. For the same compound, the concentration at 1 h [7] was 617 ± 49.7 ng/g, the concentration at 4 h [7] was 905 ± 48.2 ng/g and the concentration at 10 h [7] was 667 ± 154 ng/g. The concentration at 24 h [7] was 12 ± 2.59 ng/g, the concentration at 0.25 h [8] was 197 ± 15.3 ng/g and the concentration at 0.5 h [8] was 289 ± 31.1 ng/g. The concentration at 1 h [8] was 581 ± 107 ng/g, the concentration at 2 h [8] was 1230 ± 452 ng/g and the concentration at 4 h [8] was 1060 ± 233 ng/g. The concentration at 10 h [8] was 630 ± 39.9 ng/g, the concentration at 24 h [8] was 24.7 ± 7.5 ng/g and the concentration at 48 h [8] was 7.94 ng/g. For the same compound, the concentration at 1 h [9] was 882 ± 157 ng/g, the concentration at 4 h [9] was 2070 ± 259 ng/g and the concentration at 10 h [9] was 1320 ± 333 ng/g. It also gave a concentration at 24 h [9] of 89.1 ± 25.7 ng/g, a concentration at 48 h [9] of 24.2 ng/g and a concentration at 1 h [10] of 3500 ± 219 ng/g. For the same compound, the concentration at 4 h [10] was 4160 ± 413 ng/g, the concentration at 10 h [10] was 2060 ± 207 ng/g and the concentration at 24 h [10] was 624 ± 438 ng/g. The concentration at 48 h [10] was 81.6 ng/g, the AUC at 24 h (tumor, 1.5 mg/kg p.o. BID × 1 day, read-out: Tumor AUC at 24 hours, Average) was 5750 ng·h/mL and the AUC at 24 h (tumor, 2 mg/kg p.o. TID × 1 day, read-out: Tumor AUC at 24 hours, Average) was 11900 ng·h/mL. It also gave an AUC at 24 h (tumor, 3 mg/kg p.o. BID × 1 day, read-out: Tumor AUC at 24 hours, Average) of 13300 ng·h/mL, an AUC at 24 h (tumor, 6 mg/kg p.o. QD × 1 day, read-out: Tumor AUC at 24 hours, Average) of 25800 ng·h/mL and an AUC at 24 h (tumor, 10 mg/kg p.o. BID × 1 day, read-out: Tumor AUC at 24 hours, Average) of 56700 ng·h/mL.
